Legend:
[1] = Plasma pharmacokinetics of lurbinectedin metabolites M1 and M4 (metabolite/parent ratio) with and without itraconazole
Description: The study consisted of two parts. In Part A, three patients were sequentially enrolled to receive Sequence 1 (TR: Test–Reference) consisting of itraconazole (200 mg […]; once-daily for 12 days) co-administered with lurbinectedin (0.8 mg/m^2, 1 h, IV infusion q3wk) (Cycle 1), followed by two consecutive cycles (Cycles 2 and 3) of lurbinectedin alone (3.2 mg/m^2, 1 h, IV infusion q3wk), with the third cycle being optional. In Part B, patients were randomized (in a ratio 1:1, using sequence a block randomization implemented with Medidata Rave Randomization and Trial Supply Management [RTSM]) to receive either Sequence 1 (TR: Test–Reference), but with lurbinectedin 0.9 mg/m^2, 1 h, IV when co-administered with itraconazole, or Sequence 2 (RT: Reference–Test) of lurbinectedin alone (Cycle 1), followed by itraconazole and lurbinectedin co-administration (Cycle 2), with lurbinectedin alone (optional Cycle 3) (see Figure 2 above).
The itraconazole dose (200 mg) was selected based on the published literature for the design of clinical drug–drug interaction studies with itraconazole. In the co-administration cycles, itraconazole was administered as 200 mg (2 × 100 mg capsules) once-daily doses in the morning after breakfast for 12 consecutive days, self-administered at home starting from […] (i.e., four days before lurbinectedin infusion) to Day 8 (i.e., seven days after lurbinectedin infusion), following recommendations from the Summary of Product Characteristics. On Day 1 (day of lurbinectedin infusion), itraconazole was given immediately prior to the start of the lurbinectedin infusion. In fact, itraconazole had to be administered after collecting the first itraconazole PK sample and before the start of lurbinectedin infusion (−15 min to −1 min). In case of lurbinectedin delay (≤2 days), itraconazole could be administered for a maximum of 14 days (Figure 6). In Sequence 1 (TR), itraconazole for self-administration and the patient’s diary were given to the patient on Day −5 with a −2/+1 daytime window (i.e., from Day −7 to Day −4). In Sequence 2 (RT), itraconazole and the patient’s diary were given to the patient on Day −5 of Cycle 2 with a −2/+1 daytime window (i.e., from Day 15 of Cycle 1 to Day −4 of Cycle 2).
The impact of itraconazole on the lurbinectedin PK profile compared with that of lurbinectedin alone was evaluated using the primary study PK endpoints: Cmax and AUC0–∞ of total plasma lurbinectedin. Other secondary PK endpoints included AUC0–t, total plasma CL, t1/2, and the volume of distribution at steady state (Vss). The following unbound parameters were also estimated: AUCu,0–∞, AUCu,0–t, Cu,max, CLu, Vss,u, and t1/2,u. Plasma PK parameters were calculated with a standard non–compartmental analysis approach using Phoenix® WinNonlin® v6.4 (Certara USA, Inc., Princeton, NJ, USA).
Serial peripheral venous blood samples for the lurbinectedin PK analysis (and its metabolites M1 and M4) were collected in Cycle 1 and Cycle 2 (Sequences 1 and 2), with a schedule of thirteen samples in all patients as follows: at pre-dose, 5 min prior to the end of the lurbinectedin infusion, and at 0.5, 1, 2, 4, 6, 24, 48, 96, 168, 241, and 337 h post-dose on Days 1, 2, 3, 5, 8, 11, and 15. Only in Part B (Sequence 2) was a blood sampling test at 505 h post-lurbinectedin dosing to be collected before the lurbinectedin infusion started on Day 1 of Cycle 3, if detectable lurbinectedin concentrations were present in the pre-infusion sample in Cycle 2 of Part A. Blood samples for the PK analysis of itraconazole (and its active metabolite, hydroxy-itraconazole) were collected in cycles with itraconazole co-administration (i.e., Cycle 1 of Part A and B [Sequence 1] and Cycle 2 of Part B [Sequence 2]) at pre-dose and at 1, 2, 4, 24, and 168 h post-itraconazole dosing on Days 1, 2, and 8.

[2] = cited from earlier work
[3] = co-administration with itraconazole compared with lurbinectedin alone
[4] = treatment LRB alone (R), dose-normalized, n = 8
[5] = lurbinectedin + itraconazole divided by lurbinectedin alone

Compound	Conversion of lurbinectedin to the metabolite [1, 3]	Metabolite/parent ratio (MPR) of AUC0–t, geometric mean (CV%) ([1]; human, in vivo)	Metabolite/parent ratio (MPR) of Cmax, geometric mean (CV%) ([1]; human, in vivo)	Metabolite/parent ratio (MPR) of AUC0–t, geometric mean (CV%) [1, 4]	Metabolite/parent ratio (MPR) of Cmax, geometric mean (CV%) [1, 4]	Reduction of the conversion of lurbinectedin to the metabolite [1, 3]	MPR of AUC0–t, least-squares geometric mean ratio [1, 5]	MPR of Cmax, least-squares geometric mean ratio [1, 5]	Mild and transient liver enzymes elevations, patients ([2]; chronic dosing)	Risk of QTc prolongation in the electrocardiogram ([2]; especially at ≤200 mg once a day, in vitro data and clinical experience)
1′,3′–dihydroxy–lurbinectedin [M1]	almost completely inhibited	0.74 (NA) µg·h/L/mg	0.38 (NA) µg/L/mg	0.48 (360.01) µg·h/L/mg	0.29 (135.88) µg/L/mg	–	–	–	–	–
COc1ccc2[nH]c3c(c2c1)CCN[C@]31CS[C@@H]2c3c(OC(C)=O)c(C)c4c(c3[C@H](COC1=O)N1[C@@H]2[C@@H]2N[C@@H](Cc3cc(C)c(OC)c(O)c32)[C@@H]1O)OCO4 [M4, N–desmethyl–lurbinectedin]	–	1.29 (209.58) µg·h/L/mg	0.61 (47.57) µg/L/mg	1.45 (135.58) µg·h/L/mg	0.49 (60.3) µg/L/mg	69%	31.53%	92.47%	–	–
CCC(C)n1ncn(-c2ccc(N3CCN(c4ccc(OCC5COC(Cn6cncn6)(c6ccc(Cl)cc6Cl)O5)cc4)CC3)cc2)c1=O (centres unmarked) [itraconazole]	–	–	–	–	–	–	–	–	< 5%	low

Reference: PMC11050816, “Pharmacokinetics and Safety of Lurbinectedin Administrated with Itraconazole in Cancer Patients: A Drug–Drug Interaction Study” (Marine Drugs, 2024)
